Converted amounts (≈) assume the structure as drawn.
What was measured:
Staphylococcus aureus = assay: Antimicrobial activity against Staphylococcus aureus CGMCC1.1361 after 24 hrs by modified microdilution method; format: functional; details: CGMCC1.1361, 24 h
[1] = Cytotoxicity against human […] cells assessed as cell survival after 48 hrs by MTT assay; format: functional, cell-based
Aspergillus niger = assay: Antimicrobial activity against Aspergillus niger CGMCC3.316 after 48 hrs by modified microdilution method; format: functional; details: CGMCC3.316, 48 h
Candida albicans = assay: Antimicrobial activity against Candida albicans CGMCC2.2086 after 48 hrs by modified microdilution method; format: functional; details: CGMCC2.2086, 48 h
Pseudomonas fluorescens = assay: Antimicrobial activity against Pseudomonas fluorescens CGMCC1.1828 after 24 hrs by modified microdilution method; format: functional; details: CGMCC1.1828, 24 h
Bacillus subtilis = assay: Antimicrobial activity against Bacillus subtilis CGMCC1.1162 after 24 hrs by modified microdilution method; format: functional; details: CGMCC1.1162, 24 h
Candida tropicalis = assay: Antimicrobial activity against Candida tropicalis CGMCC2.3967 after 48 hrs by modified microdilution method; format: functional; details: CGMCC2.3967, 48 h
HepG2 = assay: Cytotoxicity against human HepG2 cells assessed as cell survival after 48 hrs by MTT assay; format: functional, cell-based; details: HepG2, 48 h
Escherichia coli = assay: Antimicrobial activity against Escherichia coli CGMCC1.1571 after 24 hrs by modified microdilution method; format: functional; details: CGMCC1.1571, 24 h

SMILES | MIC (Staphylococcus aureus) [mg/L] | IC50 [1] [µM] | MIC (Aspergillus niger) [mg/L] | MIC (Candida albicans) [mg/L] | MIC (Pseudomonas fluorescens) [mg/L] | MIC (Bacillus subtilis) [mg/L] | MIC (Candida tropicalis) [mg/L] | IC50 (HepG2) [µM] | MIC (Escherichia coli) [mg/L]
COC(=O)[C@]12CC[C@@H](C)[C@H](C)[C@H]1C1=CC[C@@H]3[C@@]4(C)Cc5c([nH]c6c(OC)cccc56)C(C)(C)[C@@H]4CC[C@@]3(C)[C@]1(C)CC2 | 31.2 (≈ 54.6 µM) | > 100 | > 100 | > 100 | > 100 | 31.2 (≈ 54.6 µM) | > 100 | > 100 | > 100
C[C@H]1[C@H](C)CC[C@]2(C(=O)NCCCN(C)C)CC[C@]3(C)C(=CC[C@@H]4[C@@]5(C)Cc6c([nH]c7ccc(Br)cc67)C(C)(C)[C@@H]5CC[C@]43C)[C@H]12 | 31.2 (≈ 45.2 µM) | 6.8 | 62.5 (≈ 90.5 µM) | > 100 | 15.6 (≈ 22.6 µM) | 31.2 (≈ 45.2 µM) | 62.5 (≈ 90.5 µM) | 5.65 | 31.2 (≈ 45.2 µM)
COC(=O)[C@]12CC[C@@H](C)[C@H](C)[C@H]1C1=CC[C@@H]3[C@@]4(C)Cc5c([nH]c6ccc(F)cc56)C(C)(C)[C@@H]4CC[C@@]3(C)[C@]1(C)CC2 | 15.6 (≈ 27.9 µM) | > 100 | 62.5 (≈ 112 µM) | 62.5 (≈ 112 µM) | 31.2 (≈ 55.7 µM) | 31.2 (≈ 55.7 µM) | 62.5 (≈ 112 µM) | 97 | 31.2 (≈ 55.7 µM)
C[C@H]1[C@H](C)CC[C@]2(C(=O)NCCCN(C)C)CC[C@]3(C)C(=CC[C@@H]4[C@@]5(C)Cc6c([nH]c7ccc(Cl)cc67)C(C)(C)[C@@H]5CC[C@]43C)[C@H]12 | 7.8 (≈ 12.1 µM) | 2.78 | 31.2 (≈ 48.3 µM) | 62.5 (≈ 96.7 µM) | 31.2 (≈ 48.3 µM) | 15.6 (≈ 24.1 µM) | 62.5 (≈ 96.7 µM) | 4.02 | 15.6 (≈ 24.1 µM)
CC(=O)N1CCN(c2ccc(OCC3COC(Cn4ccnc4)(c4ccc(Cl)cc4Cl)O3)cc2)CC1 (stereo not drawn) [KETOCONAZOLE] | – | – | 7.8 (≈ 14.7 µM) | 3.9 (≈ 7.34 µM) | – | – | 3.9 (≈ 7.34 µM) | – | –
COc1ccc2[nH]c3c(c2c1)C[C@]1(C)[C@H]2CC=C4[C@@H]5[C@@H](C)[C@H](C)CC[C@]5(C(=O)NCCCN(C)C)CC[C@@]4(C)[C@]2(C)CC[C@H]1C3(C)C | 31.2 (≈ 48.6 µM) | 12.8 | 31.2 (≈ 48.6 µM) | 62.5 (≈ 97.4 µM) | 31.2 (≈ 48.6 µM) | 15.6 (≈ 24.3 µM) | 62.5 (≈ 97.4 µM) | 11.4 | 31.2 (≈ 48.6 µM)
C[C@H]1[C@H](C)CC[C@]2(C(=O)O)CC[C@]3(C)C(=CC[C@@H]4[C@@]5(C)Cc6c([nH]c7ccc(Br)cc67)C(C)(C)[C@@H]5CC[C@]43C)[C@H]12 | 62.5 (≈ 103 µM) | 62.6 | 31.2 (≈ 51.4 µM) | 62.5 (≈ 103 µM) | 62.5 (≈ 103 µM) | 31.2 (≈ 51.4 µM) | 62.5 (≈ 103 µM) | 38.4 | 62.5 (≈ 103 µM)
C[C@H]1[C@H](C)CC[C@]2(C(=O)O)CC[C@]3(C)C(=CC[C@@H]4[C@@]5(C)Cc6c([nH]c7ccccc67)C(C)(C)[C@@H]5CC[C@]43C)[C@H]12 | 31.2 (≈ 59.1 µM) | 40.4 | > 100 | > 100 | 15.6 (≈ 29.6 µM) | 15.6 (≈ 29.6 µM) | > 100 | 25.8 | 15.6 (≈ 29.6 µM)
C[C@H]1[C@H](C)CC[C@]2(C(=O)NCCCN(C)C)CC[C@]3(C)C(=CC[C@@H]4[C@@]5(C)Cc6c([nH]c7ccccc67)C(C)(C)[C@@H]5CC[C@]43C)[C@H]12 | 15.6 (≈ 25.5 µM) | 2.12 | 31.2 (≈ 51 µM) | 31.2 (≈ 51 µM) | 31.2 (≈ 51 µM) | 7.8 (≈ 12.7 µM) | 62.5 (≈ 102 µM) | 2.78 | 15.6 (≈ 25.5 µM)
COC(=O)[C@]12CC[C@@H](C)[C@H](C)[C@H]1C1=CC[C@@H]3[C@@]4(C)Cc5c([nH]c6ccc(OC)cc56)C(C)(C)[C@@H]4CC[C@@]3(C)[C@]1(C)CC2 | 31.2 (≈ 54.6 µM) | > 100 | > 100 | > 100 | > 100 | 31.2 (≈ 54.6 µM) | > 100 | > 100 | 62.5 (≈ 109 µM)
Cc1ccc2[nH]c3c(c2c1)C[C@]1(C)[C@H]2CC=C4[C@@H]5[C@@H](C)[C@H](C)CC[C@]5(C(=O)O)CC[C@@]4(C)[C@]2(C)CC[C@H]1C3(C)C | 62.5 (≈ 115 µM) | 13.8 | > 100 | > 100 | 62.5 (≈ 115 µM) | 62.5 (≈ 115 µM) | > 100 | 17 | 31.2 (≈ 57.6 µM)
NCC[C@H](O)C(=O)N[C@@H]1C[C@H](N)[C@@H](O[C@H]2O[C@H](CN)[C@@H](O)[C@H](O)[C@H]2O)[C@H](O)[C@H]1O[C@H]1O[C@H](CO)[C@@H](O)[C@H](N)[C@H]1O [AMIKACIN] | 0.9 (≈ 1.54 µM) | – | – | – | 0.9 (≈ 1.54 µM) | 0.9 (≈ 1.54 µM) | – | – | 1.9 (≈ 3.24 µM)
COc1cccc2c1C(=O)c1c(O)c3c(c(O)c1C2=O)C[C@@](O)(C(=O)CO)C[C@@H]3O[C@H]1C[C@H](N)[C@H](O)[C@H](C)O1 [DOXORUBICIN] | – | 0.62 | – | – | – | – | – | 0.77 | –
CCOc1ccc2[nH]c3c(c2c1)C[C@]1(C)[C@H]2CC=C4[C@@H]5[C@@H](C)[C@H](C)CC[C@]5(C(=O)OC)CC[C@@]4(C)[C@]2(C)CC[C@H]1C3(C)C | 31.2 (≈ 53.3 µM) | > 100 | > 100 | > 100 | 62.5 (≈ 107 µM) | 31.2 (≈ 53.3 µM) | > 100 | > 100 | > 100
C[C@H]1[C@H](C)CC[C@]2(C(=O)O)CC[C@]3(C)C(=CC[C@@H]4[C@@]5(C)Cc6c([nH]c7ccc(F)cc67)C(C)(C)[C@@H]5CC[C@]43C)[C@H]12 | 15.6 (≈ 28.6 µM) | 16.3 | 62.5 (≈ 115 µM) | 62.5 (≈ 115 µM) | 31.2 (≈ 57.2 µM) | 15.6 (≈ 28.6 µM) | > 100 | 15.2 | 15.6 (≈ 28.6 µM)
COc1ccc2[nH]c3c(c2c1)C[C@]1(C)[C@H]2CC=C4[C@@H]5[C@@H](C)[C@H](C)CC[C@]5(C(=O)O)CC[C@@]4(C)[C@]2(C)CC[C@H]1C3(C)C | 31.2 (≈ 55.9 µM) | 31.7 | > 100 | > 100 | 62.5 (≈ 112 µM) | 31.2 (≈ 55.9 µM) | 62.5 (≈ 112 µM) | 34.6 | 31.2 (≈ 55.9 µM)
C[C@H]1[C@H](C)CC[C@]2(C(=O)O)CC[C@]3(C)C(=CC[C@@H]4[C@@]5(C)CCC(=O)C(C)(C)[C@@H]5CC[C@]43C)[C@H]12 [URSONIC ACID] | 62.5 (≈ 137 µM) | > 100 | > 100 | > 100 | 62.5 (≈ 137 µM) | 31.2 (≈ 68.6 µM) | > 100 | > 100 | 31.2 (≈ 68.6 µM)
COC(=O)[C@]12CC[C@@H](C)[C@H](C)[C@H]1C1=CC[C@@H]3[C@@]4(C)Cc5c([nH]c6ccc(C)cc56)C(C)(C)[C@@H]4CC[C@@]3(C)[C@]1(C)CC2 | 31.2 (≈ 56.1 µM) | > 100 | 31.2 (≈ 56.1 µM) | > 100 | 62.5 (≈ 112 µM) | 31.2 (≈ 56.1 µM) | 62.5 (≈ 112 µM) | > 100 | > 100
COc1cccc2c3c([nH]c12)C(C)(C)[C@@H]1CC[C@]2(C)[C@H](CC=C4[C@@H]5[C@@H](C)[C@H](C)CC[C@]5(C(=O)NCCCN(C)C)CC[C@]42C)[C@@]1(C)C3 | 62.5 (≈ 97.4 µM) | 36.2 | > 100 | > 100 | 31.2 (≈ 48.6 µM) | 31.2 (≈ 48.6 µM) | > 100 | 88.8 | 31.2 (≈ 48.6 µM)

Source: ChEMBL document CHEMBL3351749, “Synthesis, in vitro antimicrobial and cytotoxic activities of new carbazole derivatives of ursolic acid” (Bioorg Med Chem Lett, 2015)
